Experimental findings from PubChem BioAssay (NCI) are described below.

SMILES strings stand for the structures.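 Results reflect a 48-hour exposure of cells in 96-well plates to compound at five concentrations. At the TGI there is no net growth.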 Peptide text beside a SMILES is read from it. * marks the point of attachment. OSu = O=C1CCC(=O)N1O*; OBn = c1ccc(CO*)cc1; Bn = c1ccc(C*)cc1

Among the test systems are EKVX NSCLC; SK-MEL-2 melanoma; NCI-H522 lung; CAKI-1 renal; HS 578T breast; OVCAR-4 ovarian; MDA-MB-231 breast; MDA-N; ACHN renal; HL-60(TB) leukemia.
Assay in all cases: DTP human tumour cell line panel, 48 h

Turning to `CC(C)(C)OC(=O)N1C/C=C\C(=O)C2(OCCO2)c2ccccc21`, the TGI with EKVX NSCLC was more than 100 µM; in the experiment on SK-MEL-2 melanoma it was 68.5 µM; in the experiment on NCI-H522 lung, 78.8 µM; in the experiment on CAKI-1 renal, more than 100 µM; in the experiment with HS 578T breast it was more than 100 µM; in the experiment on OVCAR-4 ovarian, more than 100 µM. Also, the TGI with MDA-MB-231 breast was 40.8 µM; in the experiment on MDA-N, 48.3 µM; in the experiment with ACHN renal, more than 100 µM.
With `Cc1nc2sccn2c1C(=O)OCCOCCOCCOCCOC(=O)c1c(C)nc2sccn12`, the TGI is more than 100 µM in the experiment with EKVX NSCLC; 34 µM in the experiment with HL-60(TB) leukemia; more than 100 µM with SK-MEL-2 melanoma; more than 100 µM with NCI-H522 lung; more than 100 µM in the experiment on CAKI-1 renal; more than 100 µM in the experiment on HS 578T breast. Moreover, the TGI with OVCAR-4 ovarian, in the experiment on MDA-MB-231 breast, in the experiment with MDA-N and with ACHN renal was more than 100 µM each time.
Turning to `Cc1ccc(C2(c3ccc(C)c(O)c3C)CCN(C)CC2)c(C)c1O`, the TGI is more than 100 µM with EKVX NSCLC; 75.9 µM in the experiment with SK-MEL-2 melanoma; more than 100 µM in the experiment on NCI-H522 lung; more than 100 µM in the experiment on CAKI-1 renal; more than 100 µM in the experiment with HS 578T breast; more than 100 µM in the experiment with OVCAR-4 ovarian. The TGI in the experiment on MDA-MB-231 breast, in the experiment on MDA-N and with ACHN renal was more than 100 µM each time.
Take `CCOC(=O)C1=CN(C(=O)c2ccccc2)CCC1Cc1ccccc1` (stereo not given): the TGI in the experiment with EKVX NSCLC was more than 100 µM; in the experiment on HL-60(TB) leukemia, 32.2 µM; with SK-MEL-2 melanoma it was 35.9 µM; in the experiment on NCI-H522 lung it was 40.5 µM; in the experiment on CAKI-1 renal it was more than 100 µM; in the experiment with HS 578T breast, 92.8 µM. Besides, the TGI in the experiment with OVCAR-4 ovarian was more than 100 µM; in the experiment with MDA-MB-231 breast it was 64.9 µM; with MDA-N, 44.4 µM; in the experiment on ACHN renal, 63.6 µM.
On to `CCOC(=O)/C=C(/C(=O)OCC)n1ccc(=O)[nH]c1=O`, for which the TGI in the experiment on EKVX NSCLC was 23 µM; in the experiment with HL-60(TB) leukemia, 4.08 µM; in the experiment with SK-MEL-2 melanoma it was 30.4 µM; with NCI-H522 lung, 2.72 µM; in the experiment with CAKI-1 renal, 2.3 µM; in the experiment on HS 578T breast it was 37.9 µM. The TGI with OVCAR-4 ovarian was found to be 38.7 µM; in the experiment on MDA-MB-231 breast, 26.4 µM; with MDA-N it was 25.6 µM; with ACHN renal it was 14.6 µM.
`Cc1csc2n(C)c(=O)c3ccccc3[n+]12`: the TGI with EKVX NSCLC, in the experiment with HL-60(TB) leukemia, in the experiment on SK-MEL-2 melanoma, in the experiment on NCI-H522 lung, with CAKI-1 renal and in the experiment on HS 578T breast was more than 100 µM throughout. Moreover, the TGI in the experiment on OVCAR-4 ovarian, in the experiment on MDA-MB-231 breast, with MDA-N and in the experiment with ACHN renal was more than 100 µM in each case.
For the compound `CC(C)CC(NC(=O)C(N)CCC(=O)OCc1ccccc1)C(=O)NC(COCc1ccccc1)C(=O)NC(Cc1ccccc1)C(=O)ON1C(=O)CCC1=O` (stereo not given) (H-E(OBn)LS(Bn)F-OSu; configuration not given here), the TGI was more than 100 µM with EKVX NSCLC; 65.6 µM with SK-MEL-2 melanoma; 47.8 µM with NCI-H522 lung; 64 µM with CAKI-1 renal; 76.1 µM in the experiment with HS 578T breast; more than 100 µM in the experiment with OVCAR-4 ovarian. The results for the TGI in the experiment with MDA-MB-231 breast, in the experiment on MDA-N and with ACHN renal were 40 µM, 47.6 µM and more than 100 µM, respectively.
On to `S=C1CSc2c(cnc3ccccc23)N1`, for which the TGI in the experiment with EKVX NSCLC, in the experiment with HL-60(TB) leukemia, in the experiment with NCI-H522 lung, with CAKI-1 renal, in the experiment with HS 578T breast and in the experiment with OVCAR-4 ovarian was more than 100 µM throughout. For the same compound, the TGI in the experiment on MDA-MB-231 breast, in the experiment with MDA-N and in the experiment with ACHN renal was more than 100 µM throughout.
Consider `C=CCc1cccc2cc(C(=O)Nc3nc(C45CC6CC(CC(C6)C4)C5)cs3)c(=O)oc12`, for which the TGI in the experiment with EKVX NSCLC is more than 100 µM; with HL-60(TB) leukemia it was more than 100 µM; with NCI-H522 lung it was more than 100 µM; with CAKI-1 renal, 41.4 µM; in the experiment with HS 578T breast it was 47.9 µM; with OVCAR-4 ovarian, 51.5 µM. In addition, the TGI was 62.1 µM in the experiment with MDA-MB-231 breast, more than 100 µM in the experiment on MDA-N and 33.9 µM with ACHN renal.
`Cc1ccc(CC(=O)Nc2ccc(NC(=O)CNC(=O)/C=C/c3ccc(-c4ccccc4)cc3)cc2C(=O)c2ccccc2)cc1`: the TGI in the experiment with EKVX NSCLC amounted to 15.8 µM; in the experiment on HL-60(TB) leukemia, 20.7 µM; in the experiment with SK-MEL-2 melanoma, 35.3 µM; in the experiment on NCI-H522 lung it was 18.4 µM; in the experiment with CAKI-1 renal it was 20.4 µM; in the experiment on HS 578T breast, 21.1 µM. Further, the TGI is 9.21 µM with MDA-MB-231 breast, 20.9 µM in the experiment on MDA-N and 16.2 µM with ACHN renal.
Take `O=c1c(S(=O)(=O)Oc2ccccc2)coc2cc(F)ccc12`: the TGI with EKVX NSCLC, in the experiment with SK-MEL-2 melanoma, in the experiment with NCI-H522 lung, in the experiment with CAKI-1 renal, in the experiment on HS 578T breast and with OVCAR-4 ovarian was more than 100 µM throughout. Besides, the TGI in the experiment with MDA-MB-231 breast, with MDA-N and in the experiment on ACHN renal was more than 100 µM in each case.
`c1ccc2nn(C3CCCCO3)nc2c1` (stereo not given): the TGI in the experiment with EKVX NSCLC, in the experiment on SK-MEL-2 melanoma, in the experiment with NCI-H522 lung, in the experiment on CAKI-1 renal, with HS 578T breast and in the experiment with OVCAR-4 ovarian was more than 100 µM throughout. For the same compound, the TGI with MDA-MB-231 breast, in the experiment on MDA-N and in the experiment with ACHN renal was more than 100 µM throughout.
`CN(/N=C/c1ccc(Cl)c(Cl)c1)C1=NCCN1`: the TGI in the experiment on EKVX NSCLC was more than 100 µM; in the experiment with SK-MEL-2 melanoma, 43.6 µM; with NCI-H522 lung, 27.8 µM; in the experiment with CAKI-1 renal, 37.8 µM; with HS 578T breast, more than 100 µM; with OVCAR-4 ovarian it was more than 100 µM. Further, the results for the TGI in the experiment on MDA-MB-231 breast, in the experiment on MDA-N and with ACHN renal were 77.2 µM, 31.9 µM and more than 100 µM, respectively.
With `O=[N+]([O-])c1ccc(Cl)cc1N/N=C/c1cccs1`, the TGI in the experiment on EKVX NSCLC, with HL-60(TB) leukemia, with NCI-H522 lung, with CAKI-1 renal, in the experiment on HS 578T breast and in the experiment on OVCAR-4 ovarian was more than 100 µM each time. For the same compound, the TGI with MDA-MB-231 breast, in the experiment with MDA-N and with ACHN renal was more than 100 µM in each case.
